This test has as its system lung cancer cell lines (e.g. NCI-H23, NCI-H1229). The test can be described thus: Cell based assay, cell viability (CellTiter-Glo), lung cancer cell lines. To be noted: Homo sapiens, 72 hours treatment, CellTiter-Glo. The procedure: Commercially available bladder cancer, prostate cancer, lung cancer, breast cancer, blood cancer, pancreatic cancer, colorectal cancer, brain cancer, neuroblastoma, melanoma, liver cancer, cervical carcinoma, ovarian cancer, renal cancer, and papilloma cell lines were each treated with trypsin-EDTA and cultured, followed by being seeded in each well of a 96 well plate. After 24 hours of treatment at constant temperature, the respective cells were treated with the candidate compound so that a final concentration became 0 to 2 μM. The treated cells were additionally cultured for 72 hours, and cell viability was measured by using an ATP detection method (CellTiter-Glo® Luminescent Cell Viability Assay, Promega).
For orientation: ATP-based viability assays read luminescence as a measure of living cells.

Setting [1] is: A549 cells, read-out: IC50, lung cancer cell line A549.
Setting [2] is: DMS 114 cells, read-out: IC50, lung cancer cell line DMS 114.
The mark [3] stands for this setting: NCI-H23 cells, read-out: IC50, lung cancer cell line NCI-H23.
[4] abbreviates: NCI-H460 cells, read-out: IC50, lung cancer cell line NCI-H460.
Setting [5] is: NCI-H522 cells, read-out: IC50, lung cancer cell line NCI-H522.
[6] abbreviates: NCI-H1299 cells, read-out: IC50, lung cancer cell line NCI-H1299.
The mark [7] stands for this setting: NCI-H1437 cells, read-out: IC50, lung cancer cell line NCI-H1437.

Experimental findings from US11464770B2, “Anticancer pharmaceutical composition” (NATIONAL CANCER CENTER, priority 2016, dated 2022) are described below.

SMILES strings stand for the structures. Where two headings read alike, the source gives them in different places. Bounds are passed on as bounds.

A word on the IC50: it is the point on the concentration scale where inhibition reaches its midpoint. Regarding `CC(=O)c1c([S+](C)[O-])n(C(C)=O)c2c(Br)ccc(Cl)c2c1=O` (stereo not shown) [Compound 19, 1,1′-(8-bromo-5-chloro-2-(methylsulfinyl)-4-oxoquinoline-1,3(4H)-diyl)bis(ethan-1-one)], the IC50 reads like this: under setting [1], more than 2000 nM; under setting [2], more than 2000 nM; (MRC-5 cells, read-out: IC50) more than 2000 nM; under setting [3], more than 2000 nM; under setting [4], more than 2000 nM; under setting [5], more than 2000 nM. For the same compound, the IC50 under setting [6] is more than 2000 nM and the IC50 under setting [7] was more than 10000 nM.

On to `CC(=O)c1c([S+]([O-])Cc2ccccc2)n(C(=O)c2ccc(Br)cc2)c2c(Br)ccc(Cl)c2c1=O` (stereo not shown) [Compound 20, 3-acetyl-2-(benzylsulfinyl)-8-bromo-1-(4-bromobenzoyl)-5-chloroquinolin-4(1H)-one], for which the IC50 was more than 2000 nM under setting [1]; more than 2000 nM under setting [2]; more than 2000 nM (MRC-5 cells, read-out: IC50); 1390 nM under setting [3]; 1580 nM under setting [4]; more than 2000 nM under setting [5]. For the same compound, the IC50 is, setting by setting: under setting [6], 1580 nM; under setting [7], more than 2000 nM.

Regarding `CC(=O)c1c(S(C)(=O)=O)n(C(=O)c2ccc(Br)cc2)c2c(Br)ccc(Cl)c2c1=O` [Compound 21, 3-acetyl-8-bromo-1-(4-bromobenzoyl)-5-chloro-2-(methylsulfonyl)quinolin-4(1H)-one], the IC50 is more than 2000 nM under setting [1]; more than 2000 nM under setting [2]; more than 2000 nM (MRC-5 cells, read-out: IC50); more than 2000 nM under setting [3]; more than 2000 nM under setting [4]; more than 2000 nM under setting [5]. The IC50 runs as follows: under setting [6], more than 2000 nM; under setting [7], more than 10000 nM.

As for `CC(=O)c1c([S+](C)[O-])n(Cc2ccc(F)c(Cl)c2)c2c(Br)ccc(Cl)c2c1=O` (stereo not shown) [Compound 22, 3-acetyl-8-bromo-5-chloro-1-(3-chloro-4-fluorobenzyl)-2-(methylsulfinyl)quinolin-4(1H)-one], the IC50 is more than 2000 nM under setting [1]; more than 2000 nM under setting [2]; more than 2000 nM (MRC-5 cells, read-out: IC50); more than 2000 nM under setting [3]; more than 2000 nM under setting [4]; more than 2000 nM under setting [5]. The IC50 was more than 2000 nM under setting [6] and more than 10000 nM under setting [7].

With `CC(=O)c1c(SCc2ccccc2)n(C(=O)c2ccc(Br)cc2)c2c(Br)ccc(Cl)c2c1=O` [Compound 23, 3-acetyl-2-(benzylthio)-8-bromo-1-(4-bromobenzoyl)-5-chloroquinolin-4(1H)-one], the IC50 reads like this: under setting [1], more than 2000 nM; under setting [2], more than 2000 nM; (MRC-5 cells, read-out: IC50) more than 2000 nM; under setting [3], more than 2000 nM; under setting [4], more than 2000 nM; under setting [5], more than 2000 nM. In addition, the IC50 is more than 2000 nM under setting [6] and more than 10000 nM under setting [7].

For `CC(=O)c1c(SC(C)C)[nH]c2c(Br)ccc(Cl)c2c1=O` [Compound 24, 3-acetyl-8-bromo-5-chloro-2-(isopropylthio)quinolin-4(1H)-one], the IC50 was more than 2000 nM under setting [1]; more than 2000 nM under setting [2]; more than 2000 nM (MRC-5 cells, read-out: IC50); more than 2000 nM under setting [3]; more than 2000 nM under setting [4]; more than 2000 nM under setting [5]. The IC50 under setting [6] was more than 2000 nM and the IC50 under setting [7] is more than 10000 nM.

Turning to `CC(=O)c1c([S+]([O-])C(C)C)[nH]c2c(Br)ccc(Cl)c2c1=O` (stereo not shown) [Compound 25, 3-acetyl-8-bromo-5-chloro-2-(isopropylsulfinyl)quinolin-4(1H)-one], the IC50 by setting is: under setting [1], more than 2000 nM; under setting [2], more than 2000 nM; (MRC-5 cells, read-out: IC50) more than 2000 nM; under setting [3], more than 2000 nM; under setting [4], more than 2000 nM; under setting [5], more than 2000 nM. The IC50 was more than 2000 nM under setting [6] and more than 10000 nM under setting [7].

Turning to `CC(=O)c1c([S+]([O-])C(C)c2ccccc2)[nH]c2c(Br)ccc(Cl)c2c1=O` (stereo not shown) [Compound 26, 3-acetyl-8-bromo-5-chloro-2-((1-phenylethyl)sulfinyl)quinolin-4(1H)-one], the IC50 is, setting by setting: under setting [1], more than 2000 nM; under setting [2], more than 2000 nM; (MRC-5 cells, read-out: IC50) more than 2000 nM; under setting [3], more than 2000 nM; under setting [4], more than 2000 nM; under setting [5], more than 2000 nM. Also, the concentration for half-maximal inhibition (IC50) by setting is: under setting [6], more than 2000 nM; under setting [7], more than 10000 nM.
